Two compounds from patent publication US9174965B2, “Pyrimidinylpiperidinyloxypyridone analogues as GPR119 modulators” (BRISTOL-MYERS SQUIBB COMPANY, priority 2012, dated 2015) can be followed below.

The nature of data set [1]: Compound bioavailability assay in rats. Particulars: male, Sprague-Dawley, plasma, rat, oral. It counts as in vivo. As for the experimental part:
Compound Bioavailability Assays
Male Sprague-Dawley rats (270-350 g) were used in the pharmokinetic studies. Two (2) groups of animals (N=3 per group) were fasted overnight and one group received test compound as an IV infusion dose (1 mg/kg over 10 minutes) via a jugular vein in PEG-400/propylene glycol/ethanol (50:40:10) or Cremophor-EL/PEG400/water (10:40:50, v/v/v). The other group received test compound by oral gavage (2 or 5 mg/kg) as either nano-suspension in Pluronic F-108/polyvinylpyrrolidinone/water (1:2.5:96.5, v/v/v) or in Methocel A4M/Tween 80/water (0.5:0.1:99.4, v/v/v) as suspension (partical size: d50=0.960 μm; d90=4.4 μm) for oral dosing. […]
Pharmacokinetic parameters were obtained by non-compartmental analysis of plasma concentration vs. time data (KINETICA™ software, Version 5.0, Thermo Fisher Scientific Corporation, Philadelphia, Pa.). The peak concentration (Cmax) and time for Cmax (Tmax) were recorded directly from experimental observations. The area under the curve from time zero to the last sampling time [AUC(0-T)] and the area under the curve from time zero to infinity [AUC(INF)] were calculated using a combination of linear and log trapezoidal summations. […] Estimations of AUC and T-HALF were made using a minimum of 3 timepoints with quantifiable concentrations. […]

In data set [2] the target is L-type calcium channel Cav1.2 (Homo sapiens (Human), UniProt Q13936). In words: Patch clamp electrophysiology assay, L-type calcium channel. It counts as cell-based. Conditions: pH 7.35, HEK293, read-out: Ca % Inhibition. As for the experimental part:
Compound Electrophysiology Assays
Recombinant ion channels (hERG, sodium [SCN5A], and L-type calcium [Cav1.2]) stably expressed in human embryonic kidney cells (HEK293) are used as test systems, and each system is tested using 2-3 replicates in the conventional patch clamp assay.
Ion channel membrane current recordings are made with a Multiclamp 700 series integrating patch-clamp amplifier (Axon Instruments, Foster City, Calif.) using the whole-cell variant of the patch-clamp technique.
Cells expressing hERG, sodium [SCN5A], or L-type calcium [Cav1.2] channels are placed in a plexiglass bath chamber, mounted on the stage of an inverted microscope, and perfused continuously with bath solution. […]
L-type calcium currents are elicited by 200 ms step depolarizations applied from a holding potential of −50 mV to a test potential of +30 mV. The voltage steps are applied in 5 second intervals (0.2 Hz) and the peak inward current is recorded. […] The peak inward current is monitored until a new steady-state in the presence of test article is achieved.
Compounds are tested in 3 cells at each concentration in each ion channel assay. […] All currents were recorded at room temperature ˜25° C. IC50 values are calculated using the sigmoidal concentration-response equation Y=A+((B−A)/(1+((C/X)^D))) in XLfit where A and B are the minimum and maximum % inhibition, C is the IC50 and D is the slope factor. […]

The nature of a further data set: in vitro. Conditions: human, microsomes, pH 7.4.
Another data set can be described thus: FaSSIF solubility assay. It counts as physicochemical. Conditions: thermodynamic from solid, FaSSIF buffer, 37° C. As for the experimental part:
Approximately 5-10 mg of accurately weighed test compound was transferred to a glass vial containing 4 mL of a FaSSIF buffer (PharesAG, prepared according to manufactures protocol). The vial was then rotated at 37° C. for 24 h. After equilibration time had been met, the test solution was centrifuge filtered through a 0.45 um PTFE membrane filter. The filtrate was then analyzed by HPLC/UV against a set of standard injections to determine compound concentration.
Find below in Table 9 data for compared compounds (See WO 2011/127106 A1).

≈ marks a conversion by molar mass, not a printed value.

Sequence of L-type calcium channel Cav1.2 (Q13936 whole entry): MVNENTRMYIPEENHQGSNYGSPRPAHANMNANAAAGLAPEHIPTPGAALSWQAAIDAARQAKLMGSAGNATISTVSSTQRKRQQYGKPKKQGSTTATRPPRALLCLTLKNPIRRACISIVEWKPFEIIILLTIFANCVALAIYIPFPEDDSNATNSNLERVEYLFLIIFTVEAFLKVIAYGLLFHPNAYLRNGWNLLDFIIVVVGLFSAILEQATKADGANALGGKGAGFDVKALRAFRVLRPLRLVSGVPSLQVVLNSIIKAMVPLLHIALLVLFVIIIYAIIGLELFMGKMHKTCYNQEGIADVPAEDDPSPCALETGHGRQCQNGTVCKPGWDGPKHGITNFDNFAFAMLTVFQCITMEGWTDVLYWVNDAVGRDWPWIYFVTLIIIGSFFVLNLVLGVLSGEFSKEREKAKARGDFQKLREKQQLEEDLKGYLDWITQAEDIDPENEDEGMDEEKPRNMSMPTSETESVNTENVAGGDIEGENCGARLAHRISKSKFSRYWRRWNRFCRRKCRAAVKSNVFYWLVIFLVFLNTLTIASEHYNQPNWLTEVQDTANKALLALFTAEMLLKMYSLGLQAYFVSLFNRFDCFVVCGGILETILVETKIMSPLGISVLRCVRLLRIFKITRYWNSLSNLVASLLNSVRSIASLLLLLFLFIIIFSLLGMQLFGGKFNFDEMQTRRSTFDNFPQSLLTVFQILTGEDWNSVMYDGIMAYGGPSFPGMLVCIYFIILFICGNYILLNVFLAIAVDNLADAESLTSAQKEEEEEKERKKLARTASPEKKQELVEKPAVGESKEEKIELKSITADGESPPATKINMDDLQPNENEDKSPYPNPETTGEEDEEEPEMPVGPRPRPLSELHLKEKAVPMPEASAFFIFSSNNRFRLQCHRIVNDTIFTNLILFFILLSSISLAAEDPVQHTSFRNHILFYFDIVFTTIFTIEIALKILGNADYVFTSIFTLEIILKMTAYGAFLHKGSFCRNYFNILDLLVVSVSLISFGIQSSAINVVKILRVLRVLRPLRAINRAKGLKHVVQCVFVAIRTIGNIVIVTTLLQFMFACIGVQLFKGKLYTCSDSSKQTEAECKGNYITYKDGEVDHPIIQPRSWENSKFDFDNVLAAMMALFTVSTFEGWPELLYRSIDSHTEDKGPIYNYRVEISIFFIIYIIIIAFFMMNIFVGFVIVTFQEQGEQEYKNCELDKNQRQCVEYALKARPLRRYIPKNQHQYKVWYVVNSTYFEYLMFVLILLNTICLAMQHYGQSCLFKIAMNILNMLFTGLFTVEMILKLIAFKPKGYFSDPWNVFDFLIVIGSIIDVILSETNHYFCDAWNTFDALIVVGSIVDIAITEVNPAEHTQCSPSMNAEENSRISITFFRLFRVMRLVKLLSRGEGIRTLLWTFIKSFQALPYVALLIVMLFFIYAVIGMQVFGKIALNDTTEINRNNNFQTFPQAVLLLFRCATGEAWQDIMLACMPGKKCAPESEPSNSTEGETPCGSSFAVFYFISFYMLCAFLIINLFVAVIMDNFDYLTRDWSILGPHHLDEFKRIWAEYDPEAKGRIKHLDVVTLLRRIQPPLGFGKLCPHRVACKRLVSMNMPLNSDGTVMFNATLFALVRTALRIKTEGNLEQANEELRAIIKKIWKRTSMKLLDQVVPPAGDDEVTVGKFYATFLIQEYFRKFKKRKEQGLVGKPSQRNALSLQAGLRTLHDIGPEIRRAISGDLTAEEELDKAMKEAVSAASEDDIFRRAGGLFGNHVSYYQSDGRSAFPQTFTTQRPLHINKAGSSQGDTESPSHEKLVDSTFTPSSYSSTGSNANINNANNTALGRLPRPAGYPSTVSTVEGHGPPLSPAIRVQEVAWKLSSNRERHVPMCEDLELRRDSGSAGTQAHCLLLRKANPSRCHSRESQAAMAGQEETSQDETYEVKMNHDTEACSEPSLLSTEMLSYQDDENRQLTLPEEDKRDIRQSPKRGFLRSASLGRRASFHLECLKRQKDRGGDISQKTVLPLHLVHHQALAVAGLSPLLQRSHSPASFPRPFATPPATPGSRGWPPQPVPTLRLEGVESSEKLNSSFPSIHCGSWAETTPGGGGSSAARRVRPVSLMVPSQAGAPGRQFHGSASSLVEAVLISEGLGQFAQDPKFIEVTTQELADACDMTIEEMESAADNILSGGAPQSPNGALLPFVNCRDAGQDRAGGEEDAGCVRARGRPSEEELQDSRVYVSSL
Sequence of L-type calcium channel Cav1.2 (Q08289 whole entry partner): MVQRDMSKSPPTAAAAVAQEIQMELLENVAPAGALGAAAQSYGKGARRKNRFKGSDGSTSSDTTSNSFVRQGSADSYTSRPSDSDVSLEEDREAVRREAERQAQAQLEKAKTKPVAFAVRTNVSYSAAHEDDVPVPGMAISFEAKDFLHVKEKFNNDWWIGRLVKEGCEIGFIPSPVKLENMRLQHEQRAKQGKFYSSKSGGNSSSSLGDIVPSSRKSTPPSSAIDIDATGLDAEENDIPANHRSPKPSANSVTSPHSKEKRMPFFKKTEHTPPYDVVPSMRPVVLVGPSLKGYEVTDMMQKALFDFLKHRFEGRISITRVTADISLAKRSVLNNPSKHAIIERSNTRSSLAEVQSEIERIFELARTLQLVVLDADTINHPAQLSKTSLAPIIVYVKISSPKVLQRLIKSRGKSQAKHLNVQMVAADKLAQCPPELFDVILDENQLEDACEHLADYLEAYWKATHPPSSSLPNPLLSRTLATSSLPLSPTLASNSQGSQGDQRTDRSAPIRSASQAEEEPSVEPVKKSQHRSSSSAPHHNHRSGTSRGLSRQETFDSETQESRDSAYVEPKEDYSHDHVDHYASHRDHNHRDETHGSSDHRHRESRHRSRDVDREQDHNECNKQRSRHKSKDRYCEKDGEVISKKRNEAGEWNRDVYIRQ
Sequence of L-type calcium channel Cav1.2 (P54289 25-1103 partner): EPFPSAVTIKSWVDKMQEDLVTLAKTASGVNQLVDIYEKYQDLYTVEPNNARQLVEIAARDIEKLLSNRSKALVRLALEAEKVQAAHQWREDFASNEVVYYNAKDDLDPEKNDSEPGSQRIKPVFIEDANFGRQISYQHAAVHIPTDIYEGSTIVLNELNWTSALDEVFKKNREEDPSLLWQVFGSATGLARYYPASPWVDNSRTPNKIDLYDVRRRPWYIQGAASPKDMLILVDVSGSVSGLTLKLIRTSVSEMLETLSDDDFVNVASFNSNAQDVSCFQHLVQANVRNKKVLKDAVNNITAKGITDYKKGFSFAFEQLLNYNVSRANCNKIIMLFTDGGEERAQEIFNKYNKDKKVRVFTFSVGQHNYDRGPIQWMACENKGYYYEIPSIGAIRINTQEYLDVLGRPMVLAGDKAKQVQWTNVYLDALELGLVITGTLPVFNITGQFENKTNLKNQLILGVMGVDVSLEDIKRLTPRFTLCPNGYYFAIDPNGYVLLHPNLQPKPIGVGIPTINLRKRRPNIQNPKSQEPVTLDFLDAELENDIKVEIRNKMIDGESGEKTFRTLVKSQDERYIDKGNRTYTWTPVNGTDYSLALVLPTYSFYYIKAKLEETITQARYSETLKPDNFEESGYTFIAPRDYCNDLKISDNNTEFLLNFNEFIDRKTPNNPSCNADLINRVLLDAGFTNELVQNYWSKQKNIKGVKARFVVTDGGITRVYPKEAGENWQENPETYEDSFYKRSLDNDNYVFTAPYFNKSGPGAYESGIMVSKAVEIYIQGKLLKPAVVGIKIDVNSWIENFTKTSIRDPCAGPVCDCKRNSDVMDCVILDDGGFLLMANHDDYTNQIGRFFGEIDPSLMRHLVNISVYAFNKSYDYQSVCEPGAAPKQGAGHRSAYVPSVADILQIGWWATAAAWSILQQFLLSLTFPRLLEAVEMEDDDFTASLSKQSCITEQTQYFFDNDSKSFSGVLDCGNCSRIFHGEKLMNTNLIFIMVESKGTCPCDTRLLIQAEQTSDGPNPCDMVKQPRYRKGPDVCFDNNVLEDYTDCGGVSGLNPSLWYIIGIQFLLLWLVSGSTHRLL
Procedure for in vitro: Metabolic Stability in Liver Microsomes Test
The test compound was received as a 3.5 mM stock solution in 100 percent dimethyl sulfoxide (“DMSO”, Sigma Aldritch). The compound solution was diluted to create a 50 μM acetonitrile (“ACN”, Sigma Aldritch) solution containing 1.4% DMSO, which is then used as a 100-fold stock for incubation with microsomes. The test compound, β-nicotinamide adenine dinucleotide phosphate (“NADPH”, AppliChem Inc.) and liver microsome solutions are combined for incubation in three steps:
1) 450 μl of liver microsome suspension, protein concentration of 1.1 mg/ml in 100 mM sodium (+)/phosphate (“NaPi”, pH 7.4, Sigma Aldritch) buffer, 5 mM magnesium chloride (“MgCl2, Sigma Aldritch) buffer, is pre-warmed at 37° C.;
2) 5 μl of 50 μM test compound (98.6% ACN, 1.4% DMSO) is added to the same tube and pre-incubated at 37° C. for 5 minutes; and
3) The reaction is initiated by the addition of 50 μl of pre-warmed 10 mM NADPH solution in 100 mM NaPi, pH 7.4.
Reaction components are mixed well and then 65 μl are immediately transferred into 130 μl quench/stop solution (zero-time point, T0). The reactions are incubated at 37° C. for 5, 10, 15, 30 and 45 minutes and at each time-point a 65 μl aliquot is transferred into 130 μl of quench solution. ACN containing Internal Standard (100 ng/ml), is used as the quench solution to terminate metabolic reactions. The quenched mixtures are centrifuged at 1500 rpm (˜500×g) in an Allegra X-12 centrifuge, SX4750 rotor (Beckman Coulter Inc., Fullerton, Calif.) for fifteen minutes to pellet denatured microsomes. A volume of 90 μl of supernatant extract, containing the mixture of parent compound and its metabolites, is then transferred to a separate 96-well plate for LC/MS-MS analysis to determine the percent of parent compound that is remaining in the mixture. Peak integration is performed on all samples using the Hepatic Clearance Calculator of QuickCalc by Gubbs, Inc. The percent remaining calculation is performed by comparing the LC-MS/MS peak areas from the samples at each time point to those from the T0 samples for each compound. T1/2 values are calculated from linear regression of the LN (% Remaining) over time, and the slope of that regression (Kel) is used to calculate T1/2, using the following equation: T1/2=−0.693/Kel.

As usually defined, the inhibition is the change of the read-out against control, counted positive when it falls. Usually half-life stands for the time needed for the level to fall by half in the phase considered. Read a high half-life as slow loss. As for `Cc1nc(-n2cc(Cl)c(OC3CCN(c4ncc(Cl)cn4)CC3)cc2=O)ccc1N1CC[C@H](O)C1=O` [Example 3, (S)-5-chloro-4-((1-(5-chloropyrimidin-2-yl)piperidin-4-yl)oxy)-5′-(3-hydroxy-2-oxopyrrolidin-1-yl)-6′-methyl-2H-[1,2′-bipyridin]-2-one], the bioavailability in data set [1] (5 mg/kg as a microsuspension) amounted to 120%. Further, the inhibition at 10 µM in data set [2] is 9%. In addition, the half-life at 0.5 µM in “in vitro” amounted to 1.3 h.
A word on the solubility: it is how much of the substance goes into solution per volume. A high value points to a readily soluble substance. Regarding `Cc1nc(-n2cc(Cl)c(OC3CCN(c4ncc(Cl)cn4)CC3)cc2=O)ccc1N1CC[C@@H](O)C1=O` [Example 4, (R)-5-chloro-4-((1-(5-chloropyrimidin-2-yl)piperidin-4-yl)oxy)-5′-(3-hydroxy-2-oxopyrrolidin-1-yl)-6′-methyl-2H-[1,2′-bipyridin]-2-one], the concentration in solution in the data set “FaSSIF solubility assay” (solubility at 24 h) was 11 µg/mL (≈ 20.7 µM). In data set [1] (2 mg/kg as a microsuspension), the bioavailability came to 122%. Besides, the inhibition at 10 µM in data set [2] came to 7%. In addition, the half-life at 0.5 µM in “in vitro” was found to be 1.62 h.
